Source: patent US5686104A, “Stable oral CI-981 formulation and process of preparing same” (Warner-Lambert Company, priority 1994, dated 1997)
Counter-ions that a name gives are not always drawn.

Assays:
[1] = tested on: sterol synthesis (rat liver homogenate); settings: read-out: IC50, concentration required for 50% inhibition of sterol synthesis, one-hour period, data disclosed in U.S. Pat. No. 5,273,995; cited from earlier work
[2] = Stability of the hydroxy acid compounds in acidic environment, under light, or in wet-granulated compositions (statement); assay type: physicochemical; settings: no calcium carbonate

Row | degradation in compositions prepared by the wet-granulation method [2] | Compound | IC50 [1] [nM]
1 |  | CC(C)c1c(C(=O)Nc2ccccc2)c(-c2ccccc2)c(-c2ccc(F)cc2)n1CC[C@@H](O)C[C@@H](O)CC(=O)O (relative stereo) [Racemate] | 45
2 | degrades rapidly | CC(C)c1c(C(=O)Nc2ccccc2)c(-c2ccccc2)c(-c2ccc(F)cc2)n1CC[C@@H](O)C[C@@H](O)CC(=O)O [CI-981 Hemi-Calcium, [R-(R*,R*)]-2-(4-fluorophenyl)-β,δ-dihydroxy-5-(1-methylethyl)-3-phenyl-4-[(phenylamino)carbonyl]-1H-pyrrole-1-heptanoic acid hemicalcium salt] | 4.4
3 |  | CC(C)c1c(C(=O)Nc2ccccc2)c(-c2ccccc2)c(-c2ccc(F)cc2)n1CC[C@H](O)C[C@H](O)CC(=O)O [[S-(R*R*)] isomer] | 440
